# Measurements reported in US11820766B2, “Monoacylglycerol lipase modulators” (Janssen Pharmaceutica NV, priority 2018, dated 2023).
# Counter-ions that a name gives are not always drawn.
# Target: T1, human MGL from HeLa cells (Homo sapiens, UniProt Q99685)
# T1 construct: combining endogenously expressed MGL from HeLa cells with test compounds; endogenous in cells; host or cells: HeLa cells / cell homogenates
# T1 sequence (Q99685 1-303): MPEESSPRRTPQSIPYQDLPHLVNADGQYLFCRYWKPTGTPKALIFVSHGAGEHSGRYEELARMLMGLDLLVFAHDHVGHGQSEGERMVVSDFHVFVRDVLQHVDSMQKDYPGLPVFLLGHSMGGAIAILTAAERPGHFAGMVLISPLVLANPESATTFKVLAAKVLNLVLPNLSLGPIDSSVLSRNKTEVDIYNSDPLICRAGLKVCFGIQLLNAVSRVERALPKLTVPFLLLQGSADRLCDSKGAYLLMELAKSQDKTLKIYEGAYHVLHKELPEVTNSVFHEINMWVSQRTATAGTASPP
# Assay: In vitro MGL activity assay: [glycerol-1,3-3H]-oleyl glycerol cleavage by MGL from HeLa cells
# Assay type: biochemical
# Conditions: 300 nM [Glycerol-1,3-3H]-oleyl glycerol, one hour
# Description: MGL is the predominant hydrolase in HeLa cells/cell homogenates.
row,Compound,IC50 [µM]
1,"C[C@H]1c2nn(C)c(-c3cc(F)c(F)c(F)c3)c2CCN1C(=O)c1ccc2c(c1)COCC2 [Example 577, [(7S)-2,7-Dimethyl-3-(3,4,5-trifluorophenyl)-5,7-dihydro-4H-pyrazolo[3,4-c]pyridin-6-yl]-isochroman-7-yl-methanone]",0.0322
2,"C[C@H]1c2nn(C)c(-c3cc(F)c(F)c(F)c3)c2CCN1C(=O)c1n[nH]c2ncc(F)cc12 [Example 428, [(7S)-2,7-Dimethyl-3-(3,4,5-trifluorophenyl)-5,7-dihydro-4H-pyrazolo[3,4-c]pyridin-6-yl]-(5-fluoro-1H-pyrazolo[3,4-b]pyridin-3-yl)methanone.TFA salt]",0.023
3,"COc1cccc(-c2c3c(nn2C)[C@H](C)N(C(=O)c2ccc4ncccc4c2)CC3)c1 [Example 495, [(7S)-3-(3-Methoxyphenyl)-2,7-dimethyl-5,7-dihydro-4H-pyrazolo[3,4-c]pyridin-6-yl]-(6-quinolyl)methanone]",0.0471
4,"Cc1cc2nccnc2cc1C(=O)N1CCc2c(nn(C)c2-c2cc(F)c(F)c(F)c2)[C@@H]1C [Example 473, [(7S)-2,7-Dimethyl-3-(3,4,5-trifluorophenyl)-5,7-dihydro-4H-pyrazolo[3,4-c]pyridin-6-yl]-(7-methylquinoxalin-6-yl) methanone]",0.0307

# Second part, the molecule after the results:
row,IC50 [µM],Compound
1,0.126,"Cc1cc(C)n2ccc(C(=O)N3CCc4c(nn(C)c4-c4cc(F)c(F)c(F)c4)[C@@H]3C)c2n1 [Example 417, (2,4-Dimethylpyrrolo[1,2-a]pyrimidin-8-yl)-[(7S)-2,7-dimethyl-3-(3,4,5-trifluorophenyl)-5,7-dihydro-4H-pyrazolo[3,4-c]pyridin-6-yl] methanone]"
2,0.00936,"C[C@H]1c2nn(C)c(-c3cc(F)c(F)c(F)c3)c2CCN1C(=O)c1cnc2[nH]ccc2c1 [Example 368, [(7S)-2,7-Dimethyl-3-(3,4,5-trifluorophenyl)-5,7-dihydro-4H-pyrazolo[3,4-c]pyridin-6-yl]-(1H-pyrrolo[2,3-b]pyridin-5-yl)methanone]"
3,0.00142,"C[C@H]1c2nn(C)c(-c3cc(F)c(F)c(F)c3)c2CCN1C(=O)c1cccc2c1OCCC2 [Example 583, Chroman-8-yl-[(7S)-2,7-dimethyl-3-(3,4,5-trifluorophenyl)-5,7-dihydro-4H-pyrazolo[3,4-c]pyridin-6-yl]methanone]"
4,0.0607,"COc1ccc2c(C(=O)N3CCc4c(nn(C)c4-c4cc(F)c(F)c(F)c4)[C@@H]3C)cnn2c1 [Example 388, [(7S)-2,7-Dimethyl-3-(3,4,5-trifluorophenyl)-5,7-dihydro-4H-pyrazolo[3,4-c]pyridin-6-yl]-(6-methoxypyrazolo[1,5-a]pyridin-3-yl)methanone.TFA salt]"
5,0.0468,"Cc1ccc2c(C(=O)N3CCc4c(nn(C)c4-c4cc(F)c(F)c(F)c4)[C@@H]3C)c[nH]c2c1 [Example 360, [(7S)-2,7-Dimethyl-3-(3,4,5-trifluorophenyl)-5,7-dihydro-4H-pyrazolo[3,4-c]pyridin-6-yl]-(6-methyl-1H-indol-3-yl)methanone]"
6,0.0249,"C[C@H]1c2nn(C)c(-c3cc(F)c(F)c(F)c3)c2CCN1C(=O)c1cnc2cccnn12 [Example 454, [(7S)-2,7-Dimethyl-3-(3,4,5-trifluorophenyl)-5,7-dihydro-4H-pyrazolo[3,4-c]pyridin-6-yl]-imidazo[1,2-b]pyridazin-3-yl-methanone]"
7,0.114,"C[C@H]1c2nn(C)c(-c3cc(F)c(F)c(F)c3)c2CCN1C(=O)c1c(F)cccc1-n1cccn1 [Example 603, [(7S)-2,7-Dimethyl-3-(3,4,5-trifluorophenyl)-5,7-dihydro-4H-pyrazolo[3,4-c]pyridin-6-yl]-(2-fluoro-6-pyrazol-1-yl-phenyl)methanone]"
8,0.599,"C[C@H]1c2nn(C)c(-c3cc(F)c(F)c(F)c3)c2CCN1C(=O)c1nccc2cc[nH]c12 [Example 376, [(7S)-2,7-Dimethyl-3-(3,4,5-trifluorophenyl)-5,7-dihydro-4H-pyrazolo[3,4-c]pyridin-6-yl]-(1H-pyrrolo[2,3-c]pyridin-7-yl)methanone]"
9,0.00468,"C[C@H]1c2nn(C)c(-c3cc(F)c(F)c(F)c3)c2CCN1C(=O)c1cccn2ncc(F)c12 [Example 377, [(7S)-2,7-Dimethyl-3-(3,4,5-trifluorophenyl)-5,7-dihydro-4H-pyrazolo[3,4-c]pyridin-6-yl]-(3-fluoropyrazolo[1,5-a]pyridin-4-yl)methanone]"
10,0.0241,"C[C@H]1c2nn(C)c(-c3cc(F)c(F)c(F)c3)c2CCN1C(=O)c1nnn2ccccc12 [Example 441, [(7S)-2,7-Dimethyl-3-(3,4,5-trifluorophenyl)-5,7-dihydro-4H-pyrazolo[3,4-c]pyridin-6-yl]-(triazolo[1,5-a]pyridin-3-yl)methanone]"

# Same assay, conditions: 300 nM [Glycerol-1,3-3H]-oleyl glycerol, one hour incubation
row,Compound,IC50 [µM]
1,"Cn1nc2c(c1-c1ccccc1)CCN(C(=O)c1ccc3c(c1)OCO3)C2 [Example 29, Benzo[d][1,3]dioxol-5-yl(2-methyl-3-phenyl-2,4,5,7-tetrahydro-6H-pyrazolo[3,4-c]pyridin-6-yl)methanone]",1.95
2,"CC1c2nn(C)c(-c3cccc4ccn(C)c34)c2CCN1C(=O)c1ccc2ncccc2c1 (stereo not drawn) [Example 253, (2,7-Dimethyl-3-(1-methyl-1H-indol-7-yl)-2,4,5,7-tetrahydro-6H-pyrazolo[3,4-c]pyridin-6-yl)(quinolin-6-yl)methanone]",1.61
3,"C[C@H]1c2nn(C)c(-c3cccnc3)c2CCN1C(=O)c1ccc2nccnc2c1 [Example 108, (S)-(2,7-Dimethyl-3-(pyridin-3-yl)-2,4,5,7-tetrahydro-6H-pyrazolo[3,4-c]pyridin-6-yl)(quinoxalin-6-yl)methanone]",1.3
4,"Cn1nc2c(c1-c1ccccc1)CCN(C(=O)c1nn(C)c3ccccc13)C2 [Example 70, (1-Methyl-1H-indazol-3-yl)(2-methyl-3-phenyl-2,4,5,7-tetrahydro-6H-pyrazolo[3,4-c]pyridin-6-yl)methanone]",0.38
5,"Cn1nc2c(c1-c1ccccc1)CCN(C(=O)c1cnc3ccccn13)C2 [Example 81, Imidazo[1,2-a]pyridin-3-yl(2-methyl-3-phenyl-2,4,5,7-tetrahydro-6H-pyrazolo[3,4-c]pyridin-6-yl)methanone]",1.32
6,"COc1cccc(C(F)(F)F)c1C(=O)N1CCc2c(nn(C)c2-c2ccccc2)C1 [Example 5, (2-Methoxy-6-(trifluoromethyl)phenyl)(2-methyl-3-phenyl-2,4,5,7-tetrahydro-6H-pyrazolo[3,4-c]pyridin-6-yl)methanone]",> 10
7,"COc1cc(C(=O)N2CCc3c(nn(C)c3-c3cc(F)c(F)c(F)c3)[C@@H]2C)cc(-n2cncn2)c1 [Example 278, [(7S)-2,7-Dimethyl-3-(3,4,5-trifluorophenyl)-5,7-dihydro-4H-pyrazolo[3,4-c]pyridin-6-yl]-[3-methoxy-5-(1,2,4-triazol-1-yl)phenyl]methanone]",0.00324
8,"Cn1nc2c(c1-c1ccccc1)CCN(C(=O)c1ccnc3c1ccn3C)C2 [Example 84, (1-Methyl-1H-pyrrolo[2,3-b]pyridin-4-yl)(2-methyl-3-phenyl-2,4,5,7-tetrahydro-6H-pyrazolo[3,4-c]pyridin-6-yl)methanone]",0.0483
9,"Cn1nc2c(c1-c1ccccc1)CCN(C(=O)c1cccc3ncccc13)C2 [Example 89, (2-Methyl-3-phenyl-2,4,5,7-tetrahydro-6H-pyrazolo[3,4-c]pyridin-6-yl)(quinolin-5-yl)methanone]",0.056
10,"C[C@H]1c2nn(C)c(-c3cccc(Cl)c3)c2CCN1C(=O)c1cc(CO)ccn1 [Example 119, (S)-(3-(3-Chlorophenyl)-2,7-dimethyl-2,4,5,7-tetrahydro-6H-pyrazolo[3,4-c]pyridin-6-yl)(4-(hydroxymethyl)pyridin-2-yl)methanone]",0.398

# More lines, now with the values ahead:
row,IC50 [µM],Compound
1,0.0722,"C[C@H]1c2nn(C)c(-c3cc(F)c(F)c(F)c3)c2CCN1C(=O)c1ccc2c(cnn2C)c1 [Example 211, (S)-(2,7-Dimethyl-3-(3,4,5-trifluorophenyl)-2,4,5,7-tetrahydro-6H-pyrazolo[3,4-c]pyridin-6-yl)(1-methyl-1H-indazol-5-yl)methanone]"
2,0.00491,"C[C@H]1c2nn(C)c(-c3cc(F)c(F)c(F)c3)c2CCN1C(=O)c1cccc2ccn(C)c12 [Example 206, (S)-(2,7-Dimethyl-3-(3,4,5-trifluorophenyl)-2,4,5,7-tetrahydro-6H-pyrazolo[3,4-c]pyridin-6-yl)(1-methyl-1H-indol-7-yl)methanone]"
3,0.0286,"C[C@H]1c2nn(C)c(-c3cc(F)c(F)c(F)c3)c2CCN1C(=O)c1cn(C)c2ccncc12 [Example 219, (S)-(2,7-Dimethyl-3-(3,4,5-trifluorophenyl)-2,4,5,7-tetrahydro-6H-pyrazolo[3,4-c]pyridin-6-yl)(1-methyl-1H-pyrrolo[3,2-c]pyridin-3-yl)methanone]"
4,0.248,"COc1ccc(C(=O)N2CCc3c(nn(C)c3-c3cc(F)c(F)c(F)c3)[C@@H]2C)nc1 [Example 301, [(7S)-2,7-Dimethyl-3-(3,4,5-trifluorophenyl)-5,7-dihydro-4H-pyrazolo[3,4-c]pyridin-6-yl]-(5-methoxy-2-pyridyl)methanone]"
5,0.113,"COc1cccnc1C(=O)N1CCc2c(nn(C)c2-c2cc(F)c(F)c(F)c2)[C@@H]1C [Example 303, [(7S)-2,7-Dimethyl-3-(3,4,5-trifluorophenyl)-5,7-dihydro-4H-pyrazolo[3,4-c]pyridin-6-yl]-(3-methoxy-2-pyridyl)methanone]"
6,0.0198,"COc1ccc(-n2nccn2)c(C(=O)N2CCc3c(nn(C)c3-c3cc(F)c(F)c(F)c3)[C@@H]2C)c1 [Example 289, [(7S)-2,7-Dimethyl-3-(3,4,5-trifluorophenyl)-5,7-dihydro-4H-pyrazolo[3,4-c]pyridin-6-yl]-[5-methoxy-2-(triazol-2-yl)phenyl]methanone]"
